Measurements from PMC6834573, “Novel insights into transketolase activation by cofactor binding identifies two native species subpopulations” (Scientific Reports, 2019).

What was measured:
[1] = target: T1, wild-type E. coli transketolase (TK; TKhigh / TKlow subpopulations) (Escherichia coli, UniProt P27302); experiment: intrinsic fluorescence quenching (ex […] nm, em […] nm), double-Hill fit; format: binding; conditions: read-out: Kd(high)
T1 construct: gene tktA; full length, N-terminal His6-tag kept, from plasmid pQR791 in E. coli XL10-gold; apo form after dialysis; homodimer; about one third oxidised (TKhigh), rest unmodified (TKlow)

[2] = target: T1, wild-type E. coli transketolase (TK; TKhigh / TKlow subpopulations); experiment: as above; format: binding; conditions: second site, 9 mM Mg2+, 50 mM Tris-HCl pH 7.0, 22 °C, 0.05 mg/mL TK, low-affinity subpopulation TKlow (chemically unmodified enzyme)
[3] = target: the molecule itself; experiment: AUC; sedimentation velocity, apoTK at 0.2 mg/mL without Mg2+ and TPP, 20 °C, pH 7.0, 40,000 rpm, c(s) analysis with SEDFIT; dimer to monomers

T1 sequence (P27302 whole entry): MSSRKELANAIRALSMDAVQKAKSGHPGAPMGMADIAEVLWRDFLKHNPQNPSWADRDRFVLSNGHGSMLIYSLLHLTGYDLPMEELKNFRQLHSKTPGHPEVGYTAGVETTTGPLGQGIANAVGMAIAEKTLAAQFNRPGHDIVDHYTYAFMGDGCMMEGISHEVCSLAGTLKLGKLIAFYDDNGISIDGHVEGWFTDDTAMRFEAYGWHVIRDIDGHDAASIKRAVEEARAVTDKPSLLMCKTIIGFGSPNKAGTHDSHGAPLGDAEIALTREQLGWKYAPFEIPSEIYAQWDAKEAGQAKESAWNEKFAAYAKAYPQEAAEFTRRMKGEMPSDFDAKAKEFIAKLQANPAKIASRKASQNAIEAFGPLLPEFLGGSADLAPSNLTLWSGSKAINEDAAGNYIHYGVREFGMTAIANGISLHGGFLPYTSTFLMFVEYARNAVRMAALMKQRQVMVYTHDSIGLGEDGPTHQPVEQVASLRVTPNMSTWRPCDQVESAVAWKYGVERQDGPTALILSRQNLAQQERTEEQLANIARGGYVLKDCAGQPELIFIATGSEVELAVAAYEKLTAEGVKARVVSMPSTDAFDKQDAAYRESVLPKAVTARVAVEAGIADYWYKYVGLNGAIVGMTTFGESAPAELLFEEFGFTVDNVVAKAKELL

| Kd [1] [nM] | Kd(low) [2] [nM] | Molecule | stoichiometry N [3] |
| --- | --- | --- | --- |
| 2290 ± 230 | 276000 ± 25000 | Cc1ncc(C[n+]2csc(CCOP(=O)(O)OP(=O)(O)O)c2C)c(N)n1 [TPP, thiamine pyrophosphate] | – |
| – | – | Wild-type E. coli transketolase (apo-transketolase) (enzyme, Transketolase (EC 2.2.1.1) of E. coli, wild type; monomeric molecular weight 73035.5 g/mol as printed; The preparation is a mixture; By mass spectrometry about 31% carries one or two extra oxygen atoms (TKhigh, most likely Cys157 sulfenic or sulfinic acid) and the rest is unmodified (TKlow); also called TK; apoTK; source: E. coli XL10-gold, from the plasmid pQR791, purified, ultrafiltrated and …) SSRKELANAIRALSMDAVQKAKSGHPGAPMGMADIAEVLWRDFLKHNPQNPSWADRDRFVLSNGHGSMLIYSLLHLTGYDLPMEELKNFRQLHSKTPGHPEVGYTAGVETTTGPLGQGIANAVGMAIAEKTLAAQFNRPGHDIVDHYTYAFMGDGCMMEGISHEVCSLAGTLKLGKLIAFYDDNGISIDGHVEGWFTDDTAMRFEAYGWHVIRDIDGHDAASIKRAVEEARAVTDKPSLLMCKTIIGFGSPNKAGTHDSHGAPLGDAEIALTREQLGWKYAPFEIPSEIYAQWDAKEAGQAKESAWNEKFAAYAKAYPQEAAEFTRRMKGEMPSDFDAKAKEFIAKLQANPAKIASRKASQNAIEAFGPLLPEFLGGSADLAPSNLTLWSGSKAINEDAAGNYIHYGVREFGMTAIANGISLHGGFLPYTSTFLMFVEYARNAVRMAALMKQRQVMVYTHDSIGLGEDGPTHQPVEQVASLRVTPNMSTWRPCDQVESAVAWKYGVERQDGPTALILSRQNLAQQERTEEQLANIARGGYVLKDCAGQPELIFIATGSEVELAVAAYEKLTAEGVKARVVSMPSTDAFDKQDAAYRESVLPKAVTARVAVEAGIADYWYKYVGLNGAIVGMTTFGESAPAELLFEEFGFTVDNVVAKAKELL | 2 |
